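1) Cells in 96-well plates. 2) Compound, 48 h, 5 concentrations. 3) Linear interpolation between surrounding doses. 4) Unreached endpoint = highest concentration. At the TGI there is no net growth.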
Experiments:
Experiment in all cases: NCI anticancer screen, dose series, 48 h
LOX IMVI melanoma = tested on: LOX IMVI melanoma
A549 NSCLC = tested on: A549 NSCLC
SN12C renal = tested on: SN12C renal
HCT-15 colon = tested on: HCT-15 colon
HOP-62 NSCLC = tested on: HOP-62 NSCLC
HCC-2998 colon = tested on: HCC-2998 colon
UO-31 renal = tested on: UO-31 renal
PC-3 prostate = tested on: PC-3 prostate
SW-620 colon = tested on: SW-620 colon
RPMI-8226 leukemia = tested on: RPMI-8226 leukemia
EKVX NSCLC = tested on: EKVX NSCLC
HL-60(TB) leukemia = tested on: HL-60(TB) leukemia
SF-539 CNS = tested on: SF-539 CNS
SR leukemia = tested on: SR leukemia
SK-MEL-2 melanoma = tested on: SK-MEL-2 melanoma
MOLT-4 leukemia = tested on: MOLT-4 leukemia
T-47D breast = tested on: T-47D breast
KM12 colon = tested on: KM12 colon
COLO 205 colon = tested on: COLO 205 colon
OVCAR-4 ovarian = tested on: OVCAR-4 ovarian
MDA-MB-231 breast = tested on: MDA-MB-231 breast
HCT-116 colon = tested on: HCT-116 colon
MDA-N = tested on: MDA-N
MCF7 breast = tested on: MCF7 breast
CCRF-CEM leukemia = tested on: CCRF-CEM leukemia
U251 CNS = tested on: U251 CNS
OVCAR-3 ovarian = tested on: OVCAR-3 ovarian
HOP-92 NSCLC = tested on: HOP-92 NSCLC
CAKI-1 renal = tested on: CAKI-1 renal
SK-MEL-28 melanoma = tested on: SK-MEL-28 melanoma
HS 578T breast = tested on: HS 578T breast
UACC-257 melanoma = tested on: UACC-257 melanoma
SK-OV-3 ovarian = tested on: SK-OV-3 ovarian
A498 renal = tested on: A498 renal
SNB-19 CNS = tested on: SNB-19 CNS
HT29 colon = tested on: HT29 colon
SNB-75 CNS = tested on: SNB-75 CNS
OVCAR-5 ovarian = tested on: OVCAR-5 ovarian
SF-268 CNS = tested on: SF-268 CNS
SF-295 CNS = tested on: SF-295 CNS
OVCAR-8 ovarian = tested on: OVCAR-8 ovarian
M14 melanoma = tested on: M14 melanoma
SK-MEL-5 melanoma = tested on: SK-MEL-5 melanoma
NCI/ADR-RES ovarian = tested on: NCI/ADR-RES ovarian
NCI-H23 lung = tested on: NCI-H23 lung
MALME-3M melanoma = tested on: MALME-3M melanoma
DU-145 prostate = tested on: DU-145 prostate
786-0 renal = tested on: 786-0 renal
K-562 leukemia = tested on: K-562 leukemia
NCI-H460 lung = tested on: NCI-H460 lung
TK-10 renal = tested on: TK-10 renal
ACHN renal = tested on: ACHN renal
IGROV1 ovarian = tested on: IGROV1 ovarian
NCI-H226 lung = tested on: NCI-H226 lung
NCI-H522 lung = tested on: NCI-H522 lung
BT-549 breast = tested on: BT-549 breast
RXF 393 renal = tested on: RXF 393 renal
MDA-MB-435 = tested on: MDA-MB-435
UACC-62 melanoma = tested on: UACC-62 melanoma

Cc1cccc(N(C(=O)Nc2ccc(Cl)c(Cl)c2)C2=NCC(C)S2)c1 (stereo not drawn)
TGI (LOX IMVI melanoma): 86.5 µM | TGI (A549 NSCLC): > 100 µM | TGI (SN12C renal): > 100 µM | TGI (HCT-15 colon): > 100 µM | TGI (HOP-62 NSCLC): > 100 µM | TGI (HCC-2998 colon): > 100 µM | TGI (UO-31 renal): > 100 µM | TGI (PC-3 prostate): > 100 µM | TGI (SW-620 colon): > 100 µM | TGI (RPMI-8226 leukemia): > 100 µM | TGI (EKVX NSCLC): > 100 µM | TGI (HL-60(TB) leukemia): > 100 µM | TGI (SF-539 CNS): > 100 µM | TGI (SR leukemia): > 100 µM | TGI (SK-MEL-2 melanoma): > 100 µM | TGI (MOLT-4 leukemia): > 100 µM | TGI (T-47D breast): > 100 µM | TGI (KM12 colon): > 100 µM | TGI (COLO 205 colon): > 100 µM | TGI (OVCAR-4 ovarian): > 100 µM | TGI (MDA-MB-231 breast): > 100 µM | TGI (HCT-116 colon): > 100 µM | TGI (MDA-N): > 100 µM | TGI (MCF7 breast): 58.8 µM | TGI (CCRF-CEM leukemia): > 100 µM | TGI (U251 CNS): > 100 µM | TGI (OVCAR-3 ovarian): > 100 µM | TGI (HOP-92 NSCLC): > 100 µM | TGI (CAKI-1 renal): > 100 µM | TGI (SK-MEL-28 melanoma): > 100 µM | TGI (HS 578T breast): > 100 µM | TGI (UACC-257 melanoma): > 100 µM | TGI (SK-OV-3 ovarian): > 100 µM | TGI (A498 renal): > 100 µM | TGI (SNB-19 CNS): > 100 µM | TGI (HT29 colon): > 100 µM | TGI (SNB-75 CNS): > 100 µM | TGI (OVCAR-5 ovarian): > 100 µM | TGI (SF-268 CNS): > 100 µM | TGI (SF-295 CNS): > 100 µM | TGI (OVCAR-8 ovarian): > 100 µM | TGI (M14 melanoma): > 100 µM | TGI (SK-MEL-5 melanoma): 45.8 µM | TGI (NCI/ADR-RES ovarian): > 100 µM | TGI (NCI-H23 lung): > 100 µM | TGI (MALME-3M melanoma): > 100 µM | TGI (DU-145 prostate): > 100 µM | TGI (786-0 renal): > 100 µM | TGI (K-562 leukemia): > 100 µM | TGI (NCI-H460 lung): > 100 µM | TGI (TK-10 renal): 80.3 µM | TGI (ACHN renal): > 100 µM | TGI (IGROV1 ovarian): > 100 µM

Cc1ccc(N(C(=O)Nc2ccccc2)C2=NCC(C)S2)cc1C (stereo not drawn)
TGI (LOX IMVI melanoma): 30.3 µM | TGI (A549 NSCLC): > 100 µM | TGI (SN12C renal): 32 µM | TGI (HCT-15 colon): 44.5 µM | TGI (HOP-62 NSCLC): > 100 µM | TGI (HCC-2998 colon): > 10 µM | TGI (UO-31 renal): 80.7 µM | TGI (PC-3 prostate): > 100 µM | TGI (SW-620 colon): 62.9 µM | TGI (RPMI-8226 leukemia): 49 µM | TGI (EKVX NSCLC): 72.1 µM | TGI (HL-60(TB) leukemia): 63.7 µM | TGI (SF-539 CNS): 48.5 µM | TGI (SR leukemia): 86 µM | TGI (SK-MEL-2 melanoma): 32.2 µM | TGI (MOLT-4 leukemia): > 10 µM | TGI (T-47D breast): > 100 µM | TGI (KM12 colon): 40.5 µM | TGI (COLO 205 colon): 41.6 µM | TGI (OVCAR-4 ovarian): > 100 µM | TGI (MDA-MB-231 breast): 45 µM | TGI (HCT-116 colon): 46.5 µM | TGI (MDA-N): 31.9 µM | TGI (MCF7 breast): 71.9 µM | TGI (CCRF-CEM leukemia): 50.6 µM | TGI (U251 CNS): 51.3 µM | TGI (OVCAR-3 ovarian): 32 µM | TGI (HOP-92 NSCLC): 43.3 µM | TGI (CAKI-1 renal): > 10 µM | TGI (SK-MEL-28 melanoma): 31.2 µM | TGI (HS 578T breast): 77.4 µM | TGI (UACC-257 melanoma): > 10 µM | TGI (SK-OV-3 ovarian): > 100 µM | TGI (A498 renal): 47.9 µM | TGI (SNB-19 CNS): > 100 µM | TGI (HT29 colon): 41.9 µM | TGI (SNB-75 CNS): 56.4 µM | TGI (OVCAR-5 ovarian): 73.5 µM | TGI (SF-268 CNS): 69.8 µM | TGI (SF-295 CNS): 85.3 µM | TGI (OVCAR-8 ovarian): 91.2 µM | TGI (M14 melanoma): 28.4 µM | TGI (SK-MEL-5 melanoma): 30.7 µM | TGI (NCI/ADR-RES ovarian): 52.4 µM | TGI (NCI-H23 lung): 42.5 µM | TGI (MALME-3M melanoma): 40.7 µM | TGI (DU-145 prostate): > 100 µM | TGI (786-0 renal): 46.6 µM | TGI (K-562 leukemia): > 100 µM | TGI (NCI-H460 lung): 44.6 µM | TGI (TK-10 renal): 55.2 µM | TGI (ACHN renal): > 100 µM | TGI (IGROV1 ovarian): 89.8 µM

CC(C)=CCC/C(=C/CC/C(=C\CCc1ccoc1)C(=O)O)C(=O)O
TGI (LOX IMVI melanoma): > 100 µM | TGI (A549 NSCLC): > 100 µM | TGI (NCI-H226 lung): > 100 µM | TGI (SN12C renal): > 100 µM | TGI (HCT-15 colon): > 100 µM | TGI (HOP-62 NSCLC): > 100 µM | TGI (HCC-2998 colon): > 100 µM | TGI (UO-31 renal): > 100 µM | TGI (PC-3 prostate): > 100 µM | TGI (SW-620 colon): > 100 µM | TGI (RPMI-8226 leukemia): > 100 µM | TGI (EKVX NSCLC): > 100 µM | TGI (HL-60(TB) leukemia): > 100 µM | TGI (SF-539 CNS): > 100 µM | TGI (SK-MEL-2 melanoma): > 100 µM | TGI (MOLT-4 leukemia): > 100 µM | TGI (T-47D breast): > 100 µM | TGI (NCI-H522 lung): > 100 µM | TGI (KM12 colon): > 100 µM | TGI (COLO 205 colon): > 100 µM | TGI (OVCAR-4 ovarian): > 100 µM | TGI (MDA-MB-231 breast): > 100 µM | TGI (HCT-116 colon): > 100 µM | TGI (MDA-N): > 100 µM | TGI (MCF7 breast): > 100 µM | TGI (CCRF-CEM leukemia): > 100 µM | TGI (U251 CNS): > 100 µM | TGI (OVCAR-3 ovarian): > 100 µM | TGI (HOP-92 NSCLC): > 100 µM | TGI (CAKI-1 renal): > 100 µM | TGI (SK-MEL-28 melanoma): > 100 µM | TGI (HS 578T breast): > 100 µM | TGI (UACC-257 melanoma): > 100 µM | TGI (BT-549 breast): > 100 µM | TGI (SK-OV-3 ovarian): > 100 µM | TGI (A498 renal): > 100 µM | TGI (SNB-19 CNS): > 100 µM | TGI (RXF 393 renal): > 100 µM | TGI (HT29 colon): > 100 µM | TGI (SNB-75 CNS): > 100 µM | TGI (MDA-MB-435): > 100 µM | TGI (OVCAR-5 ovarian): > 100 µM | TGI (SF-268 CNS): > 100 µM | TGI (SF-295 CNS): > 100 µM | TGI (OVCAR-8 ovarian): > 100 µM | TGI (M14 melanoma): > 100 µM | TGI (SK-MEL-5 melanoma): > 100 µM | TGI (NCI/ADR-RES ovarian): > 100 µM | TGI (NCI-H23 lung): > 100 µM | TGI (MALME-3M melanoma): > 100 µM | TGI (DU-145 prostate): > 100 µM | TGI (UACC-62 melanoma): > 100 µM | TGI (786-0 renal): > 100 µM | TGI (K-562 leukemia): > 100 µM | TGI (TK-10 renal): > 100 µM | TGI (ACHN renal): > 100 µM | TGI (IGROV1 ovarian): > 100 µM
